Measured values published in US7877241B2, “System and method for identifying behavioral signatures” (University of Maryland, Baltimore, priority 2005, dated 2011).
Read-outs that look alike come from different tables or passages of the source.

Columns and labels:
C57BL/6J mice = settings: cited from earlier work
[1] = system: behavioral effects of cocaine; settings: in vivo; cited from earlier work
DBA/2J mice = settings: cited from earlier work
C57BL/6J males = assay: SEE open-field test with pattern screening of mice injected with anxiolytic and anxiogenic drugs; type: in vivo, mouse; settings: vs vehicle, diazepam 1 or 2 mg/kg, FG-7142 10 mg/kg, PTZ 20 mg/kg, i.p., training set only
Protocol: Behavioral data for the exemplary embodiments was gathered using the SEE open-field test described above. A mouse was introduced to a 2.5 meter circular pen and allowed to freely explore the pen for 30 minutes while the mouse's location was video-tracked and digitized at a rate of 25-30 Hz with a spatial resolution of approximately 1 cm. The tracked coordinates are stored on a storage device and imported into the SEE software. Using SEE software procedures the path is further smoothed and segmented into stops and progression segments. The data file of each animal thus included 45,000-54,000 data pints of its coordinates in the arena. Because small, local movements during stopping cannot be properly captured using available tracking technology, the analysis was limited to progression segments. Depending on the activity of the test subject, progression segments generally contain […] (100-1000 s) per animal. […]
FIG. 3 is a flow chart for a method of isolating candidate behavioral patterns according to an embodiment of the present invention. In step 302, the data points are quantified for a feature vector. In the embodiment of the present invention being described, each data point observed during the animal progression is quantified using seven “features” (variables) (t, d, v, a, j, h, c). […]
In step 306, the difference in relative frequencies are analyzed. […]

[2] = database having only C57BL/6J mice

For `CNC(=O)c1cc2c(cn1)[nH]c1ccccc12` [FG 7142, b-Carboline-3-carboxylic acid N-methylamide], the path curvature (C57BL/6J mice; [2]) is given as “increased”.
For `CCCCN1[C@@H]2CC[C@H]1CC(OC(c1ccc(F)cc1)c1ccc(F)cc1)C2` (some centres unmarked) [JHW007], the “antagonizing the behavioral effects of cocaine” value [1] is given as “effective in antagonizing the behavioral effects of cocaine”.
For `O=C(NCCCCN1CCN(c2cccc(Cl)c2Cl)CC1)c1ccc2c(c1)Cc1ccccc1-2` [NGB2904], the “antagonizing the behavioral effects of cocaine” value [1] is listed as “effective in antagonizing the behavioral effects of cocaine”.
In the case of `CC(N)Cc1ccccc1` (centres unmarked) [amphetamine], the “increase in distance traveled” value (C57BL/6J mice; C57BL/6J strain (both strains)) is given as 3 fold, the path curvature (C57BL/6J mice; C57BL/6 mice, genotype comparison DBA/2J vs. C57BL/6J) is given as “decreased” and the path curvature (DBA/2J mice; BDA/2J mice (so in the source), genotype comparison DBA/2J vs. C57BL/6J) is given as “no effect”. For the same molecule, the “increase in distance traveled” value (DBA/2J mice; DBA/2J strain (both strains)) was 3 fold.
In the case of `CN1C(=O)CN=C(c2ccccc2)c2cc(Cl)ccc21` [diazepam], the “relative frequency of performing first pattern (3,*,*,4,1,*,3)” value (C57BL/6J males; FIG. 6A) is given as “significantly reduced”, the “relative frequency of performing second pattern (3,1,4,*,3,5,*)” value (C57BL/6J males; FIG. 6B) is given as “dose-dependent effect” and the path curvature (C57BL/6J mice; [2]) is given as “dose-dependently decreased”.
In the case of `C1CCc2nnnn2CC1` [pentylenetetrazole], the path curvature (C57BL/6J mice; [2]) is listed as “increased”.
